Source: US20160215111A1, “MATERIALS AND METHODS” (THE UNIVERSITY OF SYDNEY, priority 2013, published 2016)

How the values were obtained:
[1] = test system: Human dermal fibroblasts; experiment: Cell attachment of human dermal fibroblasts to peptide coated polymer samples (crystal violet); type: cell-based; details: for % cell attachment / maximal % cell attachment: BSA blocked; for cell binding activity after dry autoclaving / cell binding activity after heating: coated at pH 10, 0 mM NaCl; for cell binding activity after dry autoclaving: 120° C., 20 min (FIG. 10); for maximal % cell attachment: coating concentration 50 μM
Description: PFTE and polystyrene were obtained from Goodfellow. PEEK was sourced from Vitrex. […] Human dermal fibroblasts were cultured in a humidified 5% CO2 atmosphere in DMEM (Invitrogen) supplemented with 10% (v/v) fetal calf serum (Invitrogen), and passaged 1 in 10 every 3-4 days. Unless stated otherwise all other reagents were purchased from Sigma.
Where stated samples were incubated in 2% Tween-20 for 10 min at 70° C. then washed with PBS. Where stated non-specific cell binding was prevented with incubation in 10 mg/ml heat denatured (80° C./10 min) BSA for 1 hour at room temperature. Confluent 75 cm^2 flasks of cells were harvested by trypsinization, and the cell density adjusted to 5×10^5 cells/ml in serum free DMEM. The cells were added to the samples for 60 min at 37° C., 5% CO2 then non-adherent cells were removed with 2×1 PBS washes. Adherent cells were fixed with the addition of 5% glutaraldehyde (w/v) in PBS for 20 min. The samples were washed 3×PBS, and then the cells were stained with 0.1% (w/v) crystal violet in 0.2M MES pH 5.0 for 1 h at room temperature. After washing extensively with dH2O the samples were transferred to fresh tissue culture plates and the crystal violet was solubilised in 10% (v/v) acetic acid. The absorbance was measured at 570 nm using a plate reader. The absorbance was converted to % cell attachment using the equation of a linear regression fit of standard known cell number controls.
Samples were peptide coated as for cell attachment analysis then washed 3× with PBS. […] The samples were then autoclaved at 120° C., 100 kPa above atmospheric pressure with steam for 20 min. For slow cooled samples the temperature of the autoclave returned to room temperature over a period of 4 hours. The other samples were removed once the autoclave reached 70° C. and were immediately immersed in room temperature PBS. All samples were washed 3× with PBS prior to measuring cell attachment.

[2] = test system: Human dermal fibroblasts; experiment: Cell morphology / spreading and patterned cell distribution by phase contrast microscopy; type: cell-based
Description: PFTE and polystyrene were obtained from Goodfellow. PEEK was sourced from Vitrex. Peptide 36 ([…]) and peptide 36 short ([…]) were synthesized by Auspep. Recombinant human tropoelastin corresponding to amino acid residues 27-724 of GenBank entry AAC98394 (gi 182020) was expressed and purified as previously described. Human dermal fibroblasts were cultured in a humidified 5% CO2 atmosphere in DMEM (Invitrogen) supplemented with 10% (v/v) fetal calf serum (Invitrogen), and passaged 1 in 10 every 3-4 days. Unless stated otherwise all other reagents were purchased from Sigma.
Samples were contact or shadow masked during PIII treatment by layering 3 mm wide low contact ADH kapton tape (contact mask) (Associated Gaskets, Australia) or a 130 μm stainless steel plate (shadow mask) (Mastercut Technologies, Australia) over the sample during PIII treatment. The masks were removed immediately after treatment.
Samples were peptide 36 coated, BSA blocked and cell seeded as for cell attachment. After incubation for 90 min the cells were fixed with the addition of 37% (w/v) formaldehyde directly to the cell media to achieve a final concentration of 3% (w/v) for 20 min. For opaque samples the cells were crystal violet stained as for cell attachment. The cell morphology was then observed by phase contrast microscopy.

[3] = test system: rabbit polyclonal antibody with specificity against the C-terminal RKRK motif of tropoelastin; experiment: C-terminal ELISA detection of RKRK exposure; type: binding; details: for C-terminal ELISA detection: tissue culture plastic, increasing coating concentration (FIG. 13)
Source text: Rabbit polyclonal antibodies against exon 36 were raised by Biomatik. A peptide corresponding to exon 36 ([…]) conjugated to Keyhole Limpet Hemocyanin was used to immunize New Zealand rabbits. Exon 36 specific antibodies were purified from the resulting immune serum by affinity chromatography using the immunogen peptide. […] Therefore this protocol produced a rabbit polyclonal antibody with specificity against the C-terminal RKRK motif of tropoelastin.
Untreated or PIII treated polystyrene was incubated in peptide 36 containing buffer (10 mM PO4, 150 mM NaCl) of increasing pH for 1 hour at room temperature. After peptide immobilization the samples were washed 3× with PBS to remove non-bound peptide. Background antibody binding was blocked with 3% (w/v) BSA for 1 hour at room temperature. The primary rabbit-anti-C-terminal antibody was diluted to 1:5000 and added to the samples for 1 hour at room temperature. Non-bound antibody was removed with 3×PBS washes then detected with 1:10,000 diluted goat anti-rabbit whole IgG-HRP conjugated secondary antibody for 1 hour at room temperature. The secondary antibody was removed, the samples washed 3×PBS washes and then transferred to fresh tissue culture plates. ABTS solution (40 mM ABTS, 0.1 mM NaOAc, 0.05M NaH2PO4, 0.01% H2O2, pH 5) was added for 30 min and the absorbance read at 405 nm.

[4] = PIII treated polystyrene (FIG. 3A, B)
[5] = post PIII allylamine vapor treated PTFE (30 min exposure), versus PIII treated PTFE (FIG. 6B)
[6] = untreated polystyrene (FIG. 3A, B)
[7] = tape or shadow masked PIII treated polymer (polystyrene, PTFE; FIG. 4)
[8] = untreated polystyrene (FIG. 3C)

ACLGKACGRKRK [peptide 36]
% cell attachment ([1]; 800 second PIII treated PTFE): 4.3±1.8% | cell binding activity ([1]; PIII treated PTFE (FIG. 6B)): low levels | cell binding activity ([1]; PIII treated PTFE and PEEK, pH 6 association buffer (FIG. 7C, D)): low levels of cell binding activity | cell binding activity ([1]; PIII treated PTFE and PEEK, pH 10 association buffer (FIG. 7C, D)): high levels of cell binding activity | cell binding activity after dry autoclaving ([1]; PIII treated PTFE): not cell adhesive | cell binding activity after heating ([1]; PIII treated PTFE, incubations of 70° C. and above (FIG. 9)): baseline levels of cell binding | cell binding activity after liquid autoclaving ([1]; PIII treated PTFE, pH 6, 150 mM NaCl autoclave liquid (FIG. 10A)): reduced to background levels | cell binding activity after liquid autoclaving ([1]; PIII treated PTFE, pH 10, 0 mM NaCl autoclave liquid, gradual cooling to room temperature (FIG. 10C)): comparable peptide 36-cell binding activity to the no-autoclave control | cell binding activity after liquid autoclaving ([1]; PIII treated PTFE, pH 10, 0 mM NaCl autoclave liquid, rapid cooling (FIG. 10B)): partial peptide 36-cell binding activity was retained | cell attachment [1, 4]: not cell adhesive | cell binding activity ([1]; PIII treated polystyrene, association buffer pH 10, 150 mM NaCl (FIG. 7B)): maximal cell binding activity | cell binding activity ([1]; PIII treated polystyrene, association buffers of up to pH 8, 150 mM NaCl (FIG. 7B)): low levels of cell biding activity | maximal % cell attachment ([1]; PIII treated polystyrene): 5.1±0.5% | cell binding activity ([1]; PIII treated surface, 150 mM NaCl association buffer, pH 7.4 (FIG. 7A)): background levels of binding | cell binding activity ([1]; PIII treated surface, low ionic strength association buffer, pH 7.4 (FIG. 7A)): high levels of peptide 36-cell binding activity | peptide dependent cell attachment ([1]; PTFE, 160 seconds of N2 plasma treatment): background levels | % cell attachment ([1]; PTFE, N2 plasma treatments up to 20 seconds before coating): 99.3-106.9% | cell binding activity [1, 5]: far greater levels of cell binding activity | cell binding activity ([1]; untreated PTFE (FIG. 6B)): high levels of cell binding | cell binding activity after dry autoclaving ([1]; untreated PTFE): retained | cell binding activity after heating ([1]; untreated PTFE, heated above 40° C. (FIG. 9)): not altered | cell binding activity after liquid autoclaving ([1]; untreated PTFE, regardless of the liquid buffer conditions (FIG. 10)): lost | cell binding activity after heating ([1]; untreated and PIII treated PTFE, heated 10 min up to 40° C. in pH 7.4, 150 mM NaCl (FIG. 9)): remained cell adhesive | cell binding activity without autoclaving ([1]; untreated and PIII treated PTFE, coated in pH 10, 0 mM NaCl buffer (FIG. 10)): cell adhesive on both untreated and PIII treated PTFE | cell attachment [1, 6]: high levels of cell adhesion | cell attachment after Tween-20 washing ([1]; untreated polystyrene, Tween-20 washed): background levels | cell binding activity ([1]; untreated polystyrene, 50 μM peptide, 10 mM PO4 pH 7.4, independent of NaCl content of association buffer (FIG. 7A)): high levels of cell-binding activity | maximal % cell attachment ([1]; untreated polystyrene): 98.6±12.5% | cell binding activity ([1]; untreated polystyrene, insensitive to pH of association buffer, 150 mM NaCl (FIG. 7B)): high levels of cell binding activity | patterned cell distribution ([2]; tape masked PIII treated PTFE, association buffer pH 7.4, 150 mM NaCl (FIG. 11)): retained selectively by peptide 36 on the untreated regions | patterned cell distribution ([2]; tape masked PIII treated PTFE, association buffer pH 10, 0 mM NaCl (FIG. 11)): cell binding on both the untreated and PIII treated sections | patterned cell distribution ([2]; tape masked PIII treated PTFE, washed with 2% Tween-20 or 5% SDS in pH 10, 0 mM NaCl at 70° C., gradual cooling (FIG. 11)): cell attachment exclusively in the PIII treated regions | patterned cell distribution [2, 7]: clearly restricted to the untreated regions | cell spreading after Tween-20 washing ([2]; untreated polymer, Tween-20 washed): removed peptide 36 dependent cell spreading activity | cell spreading [2, 8]: phase dark and flattened | C-terminal ELISA detection of RKRK exposure ([3]; PIII treated polystyrene, association buffers with pH up to 8 (FIG. 8B)): low levels of peptide 36 RKRK exposure | C-terminal ELISA detection of RKRK exposure ([3]; PIII treated polystyrene, coating concentrations up to 50 μM, 10 mM PO4, 150 mM NaCl, pH 7.4 (FIG. 8A)): little RKRK-dependent antibody detection | C-terminal ELISA detection of RKRK exposure ([3]; PIII treated polystyrene, pH 10 association buffer, compared with untreated polystyrene (FIG. 8B)): not statistically different to those obtained on untreated polystyrene | C-terminal ELISA detection [3]: detected | C-terminal ELISA detection of RKRK exposure ([3]; untreated polystyrene, 50 μM peptide, association buffer of increasing pH (FIG. 8B)): detected peptide 36 across the entire range of pH | C-terminal ELISA detection of RKRK exposure ([3]; untreated polystyrene, 10 mM PO4, 150 mM NaCl, pH 7.4, increase up to 10 μM coating, none further at 50 μM (FIG. 8A)): detected peptide 36 bound to the surface in a coating concentration dependent manner

ACLGKACG [ΔRKRK peptide 36, peptide 36 where the RKRK motif was deleted]
cell binding activity ([1]; PIII treated PTFE (FIG. 6B)): low levels of cell binding activity | cell attachment [1, 4]: did not support cell binding | cell binding activity [1, 5]: low levels of cell binding activity | cell binding activity ([1]; untreated PTFE (FIG. 6B)): low levels of cell binding activity | cell attachment [1, 6]: did not support cell binding | cell spreading ([2]; PIII treated polystyrene (FIG. 3C)): did not elicit cell spreading | patterned cell distribution [2, 7]: absence of cell attachment and spreading | cell spreading [2, 8]: did not elicit cell spreading | C-terminal ELISA detection [3]: not capable of detecting
